According to patent US10206394B2, “Herbicidal compounds” (Syngenta Participations AG, priority 2014, dated 2019):
Where two headings read alike, the source gives them in different places.

Columns and labels:
Test in all cases: Glasshouse assay for herbicidal activity (pre- and post-emergence), percentage phytotoxicity
Assay type in all cases: in vivo
[1] = system: Alopecurus myosuroides (ALOMY); settings: Alopecurus myosuroides
Protocol: (§1) Test—Glasshouse Assay for Herbicidal Activity
(§2) Seeds of a variety of monocotyledonous and dicotyledonous test plants are sown in standard soil in pots. The plants are cultivated for one day (for pre-emergence (PRE)) or for about 12 days (for post-emergence (POST)) under controlled conditions in a glasshouse (warm climate species at 24/18° C., cool climate species at 20/16° C., both at day/night; 16 hours light; 65% humidity).
(§3) The test plants are then grown on, in a glasshouse (greenhouse) under controlled conditions (warm climate species at 24/18° C., cool climate species at 20/16° C., both at day/night; 16 hours light; 65% humidity) and are watered twice daily. 15 days after application of the test herbicide (15 DAA) (for post-emergence), and 20 days after application of the test herbicide (20 DAA) (for pre-emergence), the test plants are evaluated visually, and an assessed percentage phytotoxicity score is given for each herbicidal application on each plant species (with 100%=total damage to plant; 0%=no damage to plant).
(§4) The plant species tested are as follows: Alopecurus myosuroides (ALOMY), Avena fatua (AVEFA), Lolium perenne (LOLPE), Echinochloa crus-galli (ECHCG).

[2] = system: Lolium perenne (LOLPE); settings: Lolium perenne
Protocol: as §1, §2, §3, §4

[3] = system: Echinochloa crus-galli (ECHCG); settings: Echinochloa crus-galli
Protocol: as §1, §2, §3, §4

[4] = system: Avena fatua (AVEFA); settings: Avena fatua
Protocol: as §1, §2, §3, §4

[5] = post-emergence, 360 h, 250 g/ha, post-emergence, 15 DAA, visual assessment (100%=total damage, 0%=no damage), read-out: Post-emergence herbicidal activity (percentage phytotoxicity) ALOMY POST
[6] = pre-emergence, 480 h, 250 g/ha, pre-emergence, 20 DAA, visual assessment (100%=total damage, 0%=no damage), read-out: Pre-emergence herbicidal activity (percentage phytotoxicity) ALOMY PRE
[7] = post-emergence, 360 h, 250 g/ha, post-emergence, 15 DAA, visual assessment (100%=total damage, 0%=no damage), read-out: Post-emergence herbicidal activity (percentage phytotoxicity) LOLPE POST
[8] = pre-emergence, 480 h, 250 g/ha, pre-emergence, 20 DAA, visual assessment (100%=total damage, 0%=no damage), read-out: Pre-emergence herbicidal activity (percentage phytotoxicity) LOLPE PRE
[9] = post-emergence, 360 h, 250 g/ha, post-emergence, 15 DAA, visual assessment (100%=total damage, 0%=no damage), read-out: Post-emergence herbicidal activity (percentage phytotoxicity) ECHCG POST
[10] = pre-emergence, 480 h, 250 g/ha, pre-emergence, 20 DAA, visual assessment (100%=total damage, 0%=no damage), read-out: Pre-emergence herbicidal activity (percentage phytotoxicity) ECHCG PRE
[11] = post-emergence, 360 h, 250 g/ha, post-emergence, 15 DAA, visual assessment (100%=total damage, 0%=no damage), read-out: Post-emergence herbicidal activity (percentage phytotoxicity) AVEFA POST
[12] = pre-emergence, 480 h, 250 g/ha, pre-emergence, 20 DAA, visual assessment (100%=total damage, 0%=no damage), read-out: Pre-emergence herbicidal activity (percentage phytotoxicity) AVEFA PRE
[13] = post-emergence, 360 h, Rate 250 g/ha, post-emergence, assessed visually 15 DAA, 100%=total damage, 0%=no damage, read-out: Post-emergence herbicidal activity (percentage phytotoxicity) ALOMY POST
[14] = pre-emergence, 480 h, Rate 250 g/ha, pre-emergence, assessed visually 20 DAA, 100%=total damage, 0%=no damage, read-out: Pre-emergence herbicidal activity (percentage phytotoxicity) ALOMY PRE
[15] = post-emergence, 360 h, Rate 250 g/ha, post-emergence, assessed visually 15 DAA, 100%=total damage, 0%=no damage, read-out: Post-emergence herbicidal activity (percentage phytotoxicity) LOLPE POST
[16] = pre-emergence, 480 h, Rate 250 g/ha, pre-emergence, assessed visually 20 DAA, 100%=total damage, 0%=no damage, read-out: Pre-emergence herbicidal activity (percentage phytotoxicity) LOLPE PRE
[17] = post-emergence, 360 h, Rate 250 g/ha, post-emergence, assessed visually 15 DAA, 100%=total damage, 0%=no damage, read-out: Post-emergence herbicidal activity (percentage phytotoxicity) ECHCG POST
[18] = pre-emergence, 480 h, Rate 250 g/ha, pre-emergence, assessed visually 20 DAA, 100%=total damage, 0%=no damage, read-out: Pre-emergence herbicidal activity (percentage phytotoxicity) ECHCG PRE
[19] = post-emergence, 360 h, Rate 250 g/ha, post-emergence, assessed visually 15 DAA, 100%=total damage, 0%=no damage, read-out: Post-emergence herbicidal activity (percentage phytotoxicity) AVEFA POST
[20] = pre-emergence, 480 h, Rate 250 g/ha, pre-emergence, assessed visually 20 DAA, 100%=total damage, 0%=no damage, read-out: Pre-emergence herbicidal activity (percentage phytotoxicity) AVEFA PRE
[21] = post-emergence, 360 h, POST-emergence, rate 250 g/ha, visual score 15 DAA (100%=total damage, 0%=no damage), read-out: Post-emergence herbicidal activity (percentage phytotoxicity) ALOMY POST
[22] = pre-emergence, 480 h, PRE-emergence, rate 250 g/ha, visual score 20 DAA (100%=total damage, 0%=no damage), read-out: Pre-emergence herbicidal activity (percentage phytotoxicity) ALOMY PRE
[23] = post-emergence, 360 h, POST-emergence, rate 250 g/ha, visual score 15 DAA (100%=total damage, 0%=no damage), read-out: Post-emergence herbicidal activity (percentage phytotoxicity) LOLPE POST
[24] = pre-emergence, 480 h, PRE-emergence, rate 250 g/ha, visual score 20 DAA (100%=total damage, 0%=no damage), read-out: Pre-emergence herbicidal activity (percentage phytotoxicity) LOLPE PRE
[25] = post-emergence, 360 h, POST-emergence, rate 250 g/ha, visual score 15 DAA (100%=total damage, 0%=no damage), read-out: Post-emergence herbicidal activity (percentage phytotoxicity) ECHCG POST
[26] = pre-emergence, 480 h, PRE-emergence, rate 250 g/ha, visual score 20 DAA (100%=total damage, 0%=no damage), read-out: Pre-emergence herbicidal activity (percentage phytotoxicity) ECHCG PRE
[27] = post-emergence, 360 h, POST-emergence, rate 250 g/ha, visual score 15 DAA (100%=total damage, 0%=no damage), read-out: Post-emergence herbicidal activity (percentage phytotoxicity) AVEFA POST
[28] = pre-emergence, 480 h, PRE-emergence, rate 250 g/ha, visual score 20 DAA (100%=total damage, 0%=no damage), read-out: Pre-emergence herbicidal activity (percentage phytotoxicity) AVEFA PRE

SMILES	pest or weed control at 250 g/ha [1, 5] [%]	pest or weed control at 250 g/ha [1, 6] [%]	pest or weed control at 250 g/ha [2, 7] [%]	pest or weed control at 250 g/ha [2, 8] [%]	pest or weed control at 250 g/ha [3, 9] [%]	pest or weed control at 250 g/ha [3, 10] [%]	pest or weed control at 250 g/ha [4, 11] [%]	pest or weed control at 250 g/ha [4, 12] [%]	pest or weed control at 250 g/ha [1, 13] [%]	pest or weed control at 250 g/ha [1, 14] [%]	pest or weed control at 250 g/ha [2, 15] [%]	pest or weed control at 250 g/ha [2, 16] [%]	pest or weed control at 250 g/ha [3, 17] [%]	pest or weed control at 250 g/ha [3, 18] [%]	pest or weed control at 250 g/ha [4, 19] [%]	pest or weed control at 250 g/ha [4, 20] [%]	pest or weed control at 250 g/ha [1, 21] [%]	pest or weed control at 250 g/ha [1, 22] [%]	pest or weed control at 250 g/ha [2, 23] [%]	pest or weed control at 250 g/ha [2, 24] [%]	further results
Cc1cc(C)c(C2C(=O)CC(CC(=O)NC3(C4CC4)CC3)C2=O)c(C)c1 (stereo not drawn) [Compound B78]	80	80	80	90	90	90	80	40	–	–	–	–	–	–	–	–	–	–	–	–	–
Cc1cc(C)c(C2C(=O)CC(CC(=O)NC3CC3C(F)(F)F)C2=O)c(C)c1 (stereo not drawn) [Compound B97]	70	80	70	80	80	90	50	0	–	–	–	–	–	–	–	–	–	–	–	–	–
CC#Cc1cc(C)c(C2C(=O)CC(CC(=O)NC(C)CC)C2=O)c(C)c1 (stereo not drawn) [Compound A33]	–	–	–	–	–	–	–	–	100	100	100	100	100	100	100	100	–	–	–	–	–
COCC(C)(C)NC(=O)CC1CC(=O)C(c2c(C)cc(-c3ncc(Cl)cc3F)cc2C)C1=O (stereo not drawn) [Compound B325]	–	–	–	–	–	–	–	–	–	–	–	–	–	–	–	–	100	100	100	100	pest or weed control at 250 g/ha [3, 25]: 100%; pest or weed control at 250 g/ha [3, 26]: 100%; pest or weed control at 250 g/ha [4, 27]: 100%; pest or weed control at 250 g/ha [4, 28]: 70%
Cc1cc(-c2cnc(Cl)cn2)cc(C)c1C1C(=O)CC(CC(=O)NCc2cccs2)C1=O (stereo not drawn) [Compound A148]	–	–	–	–	–	–	–	–	70	70	90	80	100	100	100	80	–	–	–	–	–
C=C(C)CNC(=O)CC1CC(=O)C(c2c(C)cc(-c3ncc(Br)cn3)cc2C)C1=O (stereo not drawn) [Compound B283]	–	–	–	–	–	–	–	–	–	–	–	–	–	–	–	–	100	100	100	100	pest or weed control at 250 g/ha [3, 25]: 100%; pest or weed control at 250 g/ha [3, 26]: 100%; pest or weed control at 250 g/ha [4, 27]: 100%; pest or weed control at 250 g/ha [4, 28]: 90%
